This experiment can be described thus: CD69 Whole Blood Assay (CD69 Hu Blood FACS). The settings on record: Lymphocyte; human whole blood, anti-IgM activated B lymphocytes, FACS; IC70; Table 2 (unit inferred); read-out: CD69 Hu Blood FACS (IC70). It counts as cell-based, human. In short, it runs like this:
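Compounds tested for blocking B-cell CD69 induction by flow cytometry in human whole blood, with activation via anti-human IgM goat F(ab′)2 crosslinking of surface IgM.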

The IC70 is the concentration at which the effect reaches the 70% level.

As to `C[C@H]1CN(C2COC2)CCN1c1ccc(Nc2cc(-c3ccnc(-n4ncc5c(cc6n5CCCC6)c4=O)c3CO)cn(C)c2=O)nc1` [Example 193, 2-[3-(hydroxymethyl)-4-[1-methyl-5-[[5-[(2S)-2-methyl-4-(oxetan-3-yl)piperazin-1-yl]-2-pyridyl]amino]-6-oxo-3-pyridyl]-2-pyridyl]-6,7,8,9-tetrahydropyridazino[4,5-b]indolizin-1-one], the IC70 came to 0.0995 µM. Take `Cn1cc(-c2ccnc(-n3ncc4c5c(sc4c3=O)CCCC5)c2CO)cc(Nc2cnccn2)c1=O` [Example 194, 3-[3-(hydroxymethyl)-4-[1-methyl-6-oxo-5-(pyrazin-2-ylamino)-3-pyridyl]-2-pyridyl]-6,7,8,9-tetrahydrobenzothiopheno[2,3-d]pyridazin-4-one]: the IC70 amounted to 1.2 µM. Regarding `CN1CCn2nc(Nc3cc(-c4ccnc(-n5ccn6c7c(cc6c5=O)CCCC7)c4CO)cn(C)c3=O)cc2C1` [Example 195, 2-[3-(hydroxymethyl)-4-[1-methyl-5-[(5-methyl-6,7-dihydro-4H-pyrazolo[1,5-a]pyrazin-2-yl)amino]-6-oxo-3-pyridyl]-2-pyridyl]-6,7,8,9-tetrahydropyrazino[1,2-a]indol-1-one], the IC70 was found to be 0.101 µM. For the compound `Cn1cc(-c2ccnc(N3CCn4c(cc5c4CCCC5)C3=O)c2CO)nc(Nc2ccc(N3CCN(C4COC4)CC3)nc2)c1=O` [Example 197, 2-[3-(hydroxymethyl)-4-[4-methyl-6-[[6-[4-(oxetan-3-yl)piperazin-1-yl]-3-pyridyl]amino]-5-oxo-pyrazin-2-yl]-2-pyridyl]-3,4,6,7,8,9-hexahydropyrazino[1,2-a]indol-1-one], the 70% effect concentration (IC70) was found to be 2.3 µM.

Regarding `Cn1cc(-c2ccnc(-n3ncc4c5n(cc4c3=O)CCCC5)c2CO)cc(Nc2ccc(N3CCN(C4COC4)CC3)cn2)c1=O` [Example 198, 3-[3-(hydroxymethyl)-4-[1-methyl-5-[[5-[4-(oxetan-3-yl)piperazin-1-yl]-2-pyridyl]amino]-6-oxo-3-pyridyl]-2-pyridyl]-7,8,9,10-tetrahydropyridazino[4,5-a]indolizin-4-one], the IC70 amounted to 6 µM. As to `Cn1cc(-c2ccnc(N3CCn4c(cc5c4CC(C)(C)C5)C3=O)c2CO)cc(Nc2ccn3ccnc3n2)c1=O` [Example 199, 3-[3-(hydroxymethyl)-4-[5-(imidazo[1,2-a]pyrimidin-7-ylamino)-1-methyl-6-oxo-3-pyridyl]-2-pyridyl]-7,7-dimethyl-1,2,6,8-tetrahydrocyclopenta[3,4]pyrrolo[3,5-b]pyrazin-4-one], the IC70 was determined as 0.934 µM.

As to `Cn1cc(-c2ccnc(N3CCn4c(cc5c4CCCC5)C3=O)c2CO)cc(Nc2ccc(C3=CCN(C4COC4)CC3)cn2)c1=O` [Example 200, 2-[3-(hydroxymethyl)-4-[1-methyl-5-[[5-[1-(oxetan-3-yl)-3,6-dihydro-2H-pyridin-4-yl]-2-pyridyl]amino]-6-oxo-3-pyridyl]-2-pyridyl]-3,4,6,7,8,9-hexahydropyrazino[1,2-a]indol-1-one], the IC70 stood at 0.636 µM. As for `Cn1cc(-c2ccnc(N3CCn4c(cc5c4CC(C)(C)C5)C3=O)c2CO)nc(Nc2ccc3nccn3c2)c1=O` [Example 201, 3-[3-(hydroxymethyl)-4-[6-(imidazo[1,2-a]pyridin-6-ylamino)-4-methyl-5-oxo-pyrazin-2-yl]-2-pyridyl]-7,7-dimethyl-1,2,6,8-tetrahydrocyclopenta[3,4]pyrrolo[3,5-b]pyrazin-4-one], the figure is 3.3 µM; as for `CN1CCn2nc(Nc3cc(-c4ccnc(-n5ncc6c7n(cc6c5=O)CCCC7)c4CO)cn(C)c3=O)cc2C1` [Example 202, 3-[3-(hydroxymethyl)-4-[1-methyl-5-[(5-methyl-6,7-dihydro-4H-pyrazolo[1,5-a]pyrazin-2-yl)amino]-6-oxo-3-pyridyl]-2-pyridyl]-7,8,9,10-tetrahydropyridazino[4,5-a]indolizin-4-one], 7.3 µM. In the case of `CN1CCc2nc(Nc3cc(-c4ccnc(N5CCn6c(cc7c6CC(C)(C)C7)C5=O)c4CO)cn(C)c3=O)sc2C1` [Example 203, 3-[3-(hydroxymethyl)-4-[1-methyl-5-[(5-methyl-6,7-dihydro-4H-thiazolo[5,4-c]pyridin-2-yl)amino]-6-oxo-3-pyridyl]-2-pyridyl]-7,7-dimethyl-1,2,6,8-tetrahydrocyclopenta[3,4]pyrrolo[3,5-b]pyrazin-4-one], the IC70 was 0.0605 µM. In the case of `CN1CCn2nc(Nc3cc(-c4ccnc(-n5ncc6c(cc7n6CCCC7)c5=O)c4CO)cn(C)c3=O)cc2C1` [Example 204, 2-[3-(hydroxymethyl)-4-[1-methyl-5-[(5-methyl-6,7-dihydro-4H-pyrazolo[1,5-a]pyrazin-2-yl)amino]-6-oxo-3-pyridyl]-2-pyridyl]-6,7,8,9-tetrahydropyridazino[4,5-b]indolizin-1-one], the IC70 turned out to be 0.436 µM. Next, `Cn1cc(-c2ccnc(N3CCn4c(cc5c4CCCC5)C3=O)c2CO)cc(Nc2cc3n(n2)CCNC3)c1=O` [Example 205, 2-[3-(hydroxymethyl)-4-[1-methyl-6-oxo-5-(4,5,6,7-tetrahydropyrazolo[1,5-a]pyrazin-2-ylamino)-3-pyridyl]-2-pyridyl]-3,4,6,7,8,9-hexahydropyrazino[1,2-a]indol-1-one]: 0.114 µM; `CN1CC(Oc2ccc(Nc3cc(-c4ccnc(N5CCn6c(cc7c6CCCC7)C5=O)c4CO)cn(C)c3=O)nc2)C1` [Example 206, 2-[3-(hydroxymethyl)-4-[1-methyl-5-[[5-(1-methylazetidin-3-yl)oxy-2-pyridyl]amino]-6-oxo-3-pyridyl]-2-pyridyl]-3,4,6,7,8,9-hexahydropyrazino[1,2-a]indol-1-one]: 0.15 µM; `CN1CC(Oc2ccc(Nc3cc(-c4ccnc(N5CCn6c(cc7c6CC(C)(C)C7)C5=O)c4CO)cn(C)c3=O)nc2)C1` [Example 207, 3-[3-(hydroxymethyl)-4-[1-methyl-5-[[5-(1-methylazetidin-3-yl)oxy-2-pyridyl]amino]-6-oxo-3-pyridyl]]-7,7-dimethyl-1,2,6,8-tetrahydrocyclopenta[3,4]pyrrolo[3,5-b]pyrazin-4-one]: 0.0414 µM. Regarding `CCN1CCn2nc(Nc3cc(-c4ccnc(N5CCc6c(cc7n6CCCC7)C5=O)c4CO)cn(C)c3=O)cc2C1` [Example 208, 2-[4-[5-[(5-ethyl-6,7-dihydro-4H-pyrazolo[1,5-a]pyrazin-2-yl)amino]-1-methyl-6-oxo-3-pyridyl]-3-(hydroxymethyl)-2-pyridyl]-3,4,6,7,8,9-hexahydropyrido[3,4-b]indolizin-1-one], the IC70 worked out at 0.58 µM. `CC(=O)N1CCn2nc(Nc3cc(-c4ccnc(N5CCn6c(cc7c6CCCC7)C5=O)c4CO)cn(C)c3=O)cc2C1` [Example 209, 2-[4-[5-[(5-acetyl-6,7-dihydro-4H-pyrazolo[1,5-a]pyrazin-2-yl)amino]-1-methyl-6-oxo-3-pyridyl]-3-(hydroxymethyl)-2-pyridyl]-3,4,6,7,8,9-hexahydropyrazino[1,2-a]indol-1-one]: the IC70 was 0.116 µM. For the compound `C[C@H]1CN(C2COC2)CCN1c1ccc(Nc2cc(-c3ccnc(N4CCn5c(cc6c5CC(C)(C)C6)C4=O)c3C(N)=O)cn(C)c2=O)nc1` [Example 210, 2-(7,7-dimethyl-4-oxo-1,2,6,8-tetrahydrocyclopenta[3,4]pyrrolo[3,5-b]pyrazin-3-yl)-4-[1-methyl-5-[[5-[(2S)-2-methyl-4-(oxetan-3-yl)piperazin-1-yl]-2-pyridyl]amino]-6-oxo-3-pyridyl]pyridine-3-carboxamide], the IC70 is 0.914 µM.

The values are drawn from patent publication US10045983B2, “Heteroaryl pyridone and aza-pyrodine compounds” (Genentech, Inc., priority 2011, dated 2018).
